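Grown in 96-well plates, cells were treated for 48 hours with each compound at five concentrations. Insufficient inhibition: endpoint recorded as highest concentration tested. At the GI50, growth is halved.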 Calls of active or inactive are those of the source. No stated cut-off is given here; in the data, active = GI50 up to about 1.1 µM and inactive = higher.
Key:
Test in all cases: growth of human tumour cells (NCI), 48 h
786-0 = tested on: 786-0
A498 = tested on: A498
A549 = tested on: A549
ACHN = tested on: ACHN
BT-549 = tested on: BT-549
CCRF-CEM = tested on: CCRF-CEM
COLO 205 = tested on: COLO 205
DU-145 = tested on: DU-145
EKVX = tested on: EKVX
HCC 2998 = tested on: HCC 2998
HCT-116 = tested on: HCT-116
HCT-15 = tested on: HCT-15
HL-60 = tested on: HL-60
HOP-62 = tested on: HOP-62
HOP-92 = tested on: HOP-92
HT-29 = tested on: HT-29
Hs-578T = tested on: Hs-578T
IGROV-1 = tested on: IGROV-1
K562 = tested on: K562
KM12 = tested on: KM12
LOX IMVI = tested on: LOX IMVI
M14 = tested on: M14
MCF7 = tested on: MCF7
MDA-MB-231 = tested on: MDA-MB-231
MDA-MB-435 = tested on: MDA-MB-435
MDA-N = tested on: MDA-N
MOLT-4 = tested on: MOLT-4
Malme-3M = tested on: Malme-3M
NCI-H226 = tested on: NCI-H226
NCI-H23 = tested on: NCI-H23
NCI-H460 = tested on: NCI-H460
NCI-H522 = tested on: NCI-H522
NCI/ADR-RES = tested on: NCI/ADR-RES
OVCAR-3 = tested on: OVCAR-3
OVCAR-4 = tested on: OVCAR-4
OVCAR-5 = tested on: OVCAR-5
OVCAR-8 = tested on: OVCAR-8
PC-3 = tested on: PC-3
RPMI-8226 = tested on: RPMI-8226
RXF 393 = tested on: RXF 393
SF-268 = tested on: SF-268
SF-295 = tested on: SF-295
SF-539 = tested on: SF-539
SK-MEL-28 = tested on: SK-MEL-28
SK-MEL-2 = tested on: SK-MEL-2
SK-MEL-5 = tested on: SK-MEL-5
SK-OV-3 = tested on: SK-OV-3
SN12C = tested on: SN12C
SNB-19 = tested on: SNB-19
SNB-75 = tested on: SNB-75
SR = tested on: SR
SW-620 = tested on: SW-620
T47D = tested on: T47D
TK-10 = tested on: TK-10
U-251 = tested on: U-251
UACC-257 = tested on: UACC-257
UACC-62 = tested on: UACC-62
UO-31 = tested on: UO-31
CAKI-1 = tested on: CAKI-1

SMILES: COC(=O)/C=C(\S/C(=N\n1cc(C(=O)OC)c(C(=O)OC)c1-c1ccc(C)cc1)c1ccc(C)cc1)C(=O)OC
- GI50 (786-0): 4.44 µM (inactive)
- GI50 (A498): 12.8 µM (inactive)
- GI50 (A549): 18.7 µM (inactive)
- GI50 (ACHN): 2.34 µM (inactive)
- GI50 (BT-549): 7.23 µM (inactive)
- GI50 (CCRF-CEM): 0.34 µM (active)
- GI50 (COLO 205): 2.45 µM (inactive)
- GI50 (DU-145): 6.78 µM (inactive)
- GI50 (EKVX): 15.7 µM (inactive)
- GI50 (HCC 2998): 18.7 µM (inactive)
- GI50 (HCT-116): 1.97 µM (inactive)
- GI50 (HCT-15): 2.28 µM
- GI50 (HL-60): 4.62 µM (inactive)
- GI50 (HOP-62): 16.9 µM (inactive)
- GI50 (HOP-92): 2.8 µM (inactive)
- GI50 (HT-29): 4.91 µM (inactive)
- GI50 (Hs-578T): 18.4 µM (inactive)
- GI50 (IGROV-1): 7.85 µM (inactive)
- GI50 (K562): 1.43 µM (inactive)
- GI50 (KM12): 19.1 µM (inactive)
- GI50 (LOX IMVI): 2.84 µM (inactive)
- GI50 (M14): 5.94 µM (inactive)
- GI50 (MCF7): 6.7 µM (inactive)
- GI50 (MDA-MB-231): 5.25 µM (inactive)
- GI50 (MDA-MB-435): 5.94 µM (inactive)
- GI50 (MDA-N): 5.79 µM (inactive)
- GI50 (MOLT-4): 4.26 µM (inactive)
- GI50 (Malme-3M): 6.52 µM (inactive)
- GI50 (NCI-H226): 1.7 µM (inactive)
- GI50 (NCI-H23): 5.62 µM (inactive)
- GI50 (NCI-H460): 17.7 µM (inactive)
- GI50 (NCI-H522): 1.67 µM (inactive)
- GI50 (NCI/ADR-RES): 6.87 µM (inactive)
- GI50 (OVCAR-3): 4.67 µM (inactive)
- GI50 (OVCAR-4): 1.58 µM (inactive)
- GI50 (OVCAR-5): 6.7 µM (inactive)
- GI50 (OVCAR-8): 12.9 µM (inactive)
- GI50 (PC-3): 5.28 µM (inactive)
- GI50 (RPMI-8226): 1.44 µM (inactive)
- GI50 (RXF 393): 5.47 µM (inactive)
- GI50 (SF-268): 16.1 µM (inactive)
- GI50 (SF-295): 32.8 µM (inactive)
- GI50 (SF-539): 17.9 µM (inactive)
- GI50 (SK-MEL-28): 5.78 µM (inactive)
- GI50 (SK-MEL-2): 6.12 µM (inactive)
- GI50 (SK-MEL-5): 13.4 µM (inactive)
- GI50 (SK-OV-3): 32.3 µM (inactive)
- GI50 (SN12C): 6.18 µM (inactive)
- GI50 (SNB-19): 34 µM (inactive)
- GI50 (SNB-75): 11.5 µM (inactive)
- GI50 (SR): 1.16 µM (inactive)
- GI50 (SW-620): 1.77 µM (inactive)
- GI50 (T47D): 1.03 µM (active)
- GI50 (TK-10): 3.03 µM (inactive)
- GI50 (U-251): 5.66 µM (inactive)
- GI50 (UACC-257): 4.72 µM (inactive)
- GI50 (UACC-62): 12 µM (inactive)
- GI50 (UO-31): 2.52 µM (inactive)

SMILES: COC(=O)c1c2c(cc3c1CC1(Cc4ccccc4C1)C3)CCC2
- GI50 (786-0): 27.9 µM (inactive)
- GI50 (A498): 25.9 µM (inactive)
- GI50 (A549): 28.7 µM (inactive)
- GI50 (ACHN): 23.8 µM (inactive)
- GI50 (BT-549): 20.9 µM (inactive)
- GI50 (CAKI-1): 19.8 µM (inactive)
- GI50 (CCRF-CEM): 17.2 µM (inactive)
- GI50 (COLO 205): 16.6 µM (inactive)
- GI50 (DU-145): 47.4 µM (inactive)
- GI50 (EKVX): 25.6 µM (inactive)
- GI50 (HCC 2998): 33.1 µM (inactive)
- GI50 (HCT-116): 21.7 µM (inactive)
- GI50 (HCT-15): 23 µM
- GI50 (HL-60): 17.3 µM (inactive)
- GI50 (HOP-62): 28.2 µM (inactive)
- GI50 (HOP-92): 36.9 µM (inactive)
- GI50 (HT-29): 13.8 µM (inactive)
- GI50 (Hs-578T): 22.9 µM (inactive)
- GI50 (IGROV-1): 22.5 µM (inactive)
- GI50 (K562): 4.32 µM (inactive)
- GI50 (KM12): 13 µM (inactive)
- GI50 (LOX IMVI): 15.9 µM (inactive)
- GI50 (MCF7): 6.38 µM (inactive)
- GI50 (MDA-MB-231): 14.8 µM (inactive)
- GI50 (MDA-MB-435): 8.91 µM (inactive)
- GI50 (MDA-N): 6.27 µM (inactive)
- GI50 (MOLT-4): 17.1 µM (inactive)
- GI50 (Malme-3M): 20.2 µM (inactive)
- GI50 (NCI-H226): 31.7 µM (inactive)
- GI50 (NCI-H23): 31.3 µM (inactive)
- GI50 (NCI-H460): 30.5 µM (inactive)
- GI50 (NCI-H522): 14 µM (inactive)
- GI50 (NCI/ADR-RES): 22.2 µM (inactive)
- GI50 (OVCAR-3): 18.9 µM (inactive)
- GI50 (OVCAR-4): 37.8 µM (inactive)
- GI50 (OVCAR-5): 25.2 µM (inactive)
- GI50 (OVCAR-8): 35.2 µM (inactive)
- GI50 (PC-3): 13.8 µM (inactive)
- GI50 (RPMI-8226): 17.9 µM (inactive)
- GI50 (RXF 393): 16.9 µM (inactive)
- GI50 (SF-268): 36.6 µM (inactive)
- GI50 (SF-295): 24.5 µM (inactive)
- GI50 (SF-539): 39.5 µM (inactive)
- GI50 (SK-MEL-28): 24.2 µM (inactive)
- GI50 (SK-MEL-5): 13.5 µM (inactive)
- GI50 (SK-OV-3): 31.4 µM (inactive)
- GI50 (SN12C): 16.9 µM (inactive)
- GI50 (SNB-75): 26.2 µM (inactive)
- GI50 (SR): 16.5 µM (inactive)
- GI50 (SW-620): 14.2 µM (inactive)
- GI50 (T47D): 15.8 µM (inactive)
- GI50 (TK-10): 61.8 µM (inactive)
- GI50 (U-251): 20.9 µM (inactive)
- GI50 (UACC-257): 17.6 µM (inactive)
- GI50 (UACC-62): 20.9 µM (inactive)
- GI50 (UO-31): 13 µM (inactive)

SMILES: CN(CCO)CC(=O)CC(O)(C(F)(F)F)C(F)(F)F
- GI50 (786-0): 32.6 µM (inactive)
- GI50 (A498): 44.6 µM (inactive)
- GI50 (A549): 30.4 µM (inactive)
- GI50 (ACHN): 27.7 µM (inactive)
- GI50 (BT-549): 43.7 µM (inactive)
- GI50 (CAKI-1): 30.1 µM (inactive)
- GI50 (CCRF-CEM): 32.1 µM (inactive)
- GI50 (COLO 205): 35.3 µM (inactive)
- GI50 (DU-145): 42.7 µM (inactive)
- GI50 (EKVX): 31.2 µM (inactive)
- GI50 (HCC 2998): 56.2 µM (inactive)
- GI50 (HCT-116): 30.8 µM (inactive)
- GI50 (HCT-15): 33.3 µM
- GI50 (HL-60): 26.4 µM (inactive)
- GI50 (HOP-92): 22.5 µM (inactive)
- GI50 (HT-29): 30.7 µM (inactive)
- GI50 (Hs-578T): 21.3 µM (inactive)
- GI50 (IGROV-1): 43.2 µM (inactive)
- GI50 (K562): 42.4 µM (inactive)
- GI50 (KM12): 39.8 µM (inactive)
- GI50 (LOX IMVI): 31.4 µM (inactive)
- GI50 (M14): 32.5 µM (inactive)
- GI50 (MCF7): 46.2 µM (inactive)
- GI50 (MDA-MB-231): 29.7 µM (inactive)
- GI50 (MDA-MB-435): 36 µM (inactive)
- GI50 (MDA-N): 32.1 µM (inactive)
- GI50 (MOLT-4): 52.6 µM (inactive)
- GI50 (Malme-3M): 34.7 µM (inactive)
- GI50 (NCI-H226): 36.3 µM (inactive)
- GI50 (NCI-H23): 23.6 µM (inactive)
- GI50 (NCI-H460): 27.5 µM (inactive)
- GI50 (NCI-H522): 40.2 µM (inactive)
- GI50 (NCI/ADR-RES): 41 µM (inactive)
- GI50 (OVCAR-3): 26.5 µM (inactive)
- GI50 (OVCAR-4): 50 µM (inactive)
- GI50 (OVCAR-5): 52.5 µM (inactive)
- GI50 (OVCAR-8): 41.3 µM (inactive)
- GI50 (PC-3): 26.2 µM (inactive)
- GI50 (RPMI-8226): 32.1 µM (inactive)
- GI50 (RXF 393): 19.5 µM (inactive)
- GI50 (SF-295): 30 µM (inactive)
- GI50 (SF-539): 34.7 µM (inactive)
- GI50 (SK-MEL-28): 42.6 µM (inactive)
- GI50 (SK-MEL-2): 33 µM (inactive)
- GI50 (SK-MEL-5): 16.3 µM (inactive)
- GI50 (SK-OV-3): 26.4 µM (inactive)
- GI50 (SNB-19): 41.4 µM (inactive)
- GI50 (SNB-75): 14.5 µM (inactive)
- GI50 (SR): 40.8 µM (inactive)
- GI50 (SW-620): 34.9 µM (inactive)
- GI50 (T47D): 28.4 µM (inactive)
- GI50 (TK-10): 35.4 µM (inactive)
- GI50 (U-251): 28.6 µM (inactive)
- GI50 (UACC-257): 37.6 µM (inactive)
- GI50 (UACC-62): 35.6 µM (inactive)
- GI50 (UO-31): 39.1 µM (inactive)

Source: ChEMBL document CHEMBL1201862, “PubChem BioAssay data set” (2004)
